Test system: HeLa cells
Assay: Cell cycle analysis (DNA content histograms) in HeLa cells
Type: cell-based, human
Settings: >11 μM
Protocol: FIGS. 7A-7B evaluates the Colibactin 742 (4) and its linear precursor 9 recapitulate the clb phenotype. […] HeLa cells were treated with the linear precursor 9 (1-100 μM), colibactin 742 (4) (1-100 μM) or MMC (150 nM) for 4 h. The cells were then washed and incubated for 20 h before immunofluorescence imaging. Cells were considered positive when >5 FANCD2 or γH2AX foci formed. Means and standard deviations of results from at least three independent experiments are shown. FIG. 7B depicts the DNA content histograms upon treatment with colibactin 742 (4, 11 μM) or 9 (11 μM) quantification of the sub-population of the histograms.
DNA content histograms and quantification of the sub-population of the histograms.
It has also been reported that clb^+ bacteria induce cell cycle arrest at the G2/M phase and eventual mitotic catastrophe.

SMILES: C[C@H]1CCC(CC(=O)NC2(C(=O)CC(=O)NCC(=O)c3csc(CCc4csc(CNC(=O)CC(=O)C5(NC(=O)CC6=N[C@@H](C)CC6)CC5)n4)n3)CC2)=N1 [compound 9]
- cell cycle arrest at G2/M: accumulation of cells in G2

Reference: patent publication US20250026747A1, “COLIBACTIN DERIVATIVES AND METHODS OF TREATING, AMELIORATING, AND/OR PREVENTING CANCER” (priority 2021, published 2025)
